From PubChem BioAssay AID1963834 (Molecular Pharmacology Branch, DTP, NCI, 2024)

Tested on: 873145-292-R-J1-PDC complex spheroid viability
Test: Anticancer human tumor 873145-292-R-J1-PDC patient-derived renal clear cell carcinoma cell line growth inhibition [POLQ]
Settings: for IC50: curve of first compound; for viability, T/C: stronger effect = lower value; active = viability on the fitted dose curve at most 10% of control; inactive = the rest
Summary of the method: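 Complex spheroid viability model combining PDC tumour cells with endothelial (HUVEC) and MSC stromal cells. Novobiocin, ART-558 or RP6685 were tested singly and in combination with standard and investigational anticancer drugs. Each was titrated in half-log steps from near clinical Cmax, or from 10 microM where Cmax was unknown.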

[1] = second compound 0.0316 µM, first compound 0.0316 µM
[2] = second compound 0.0316 µM, first compound 0.1 µM
[3] = second compound 0.0316 µM, first compound 0.316 µM
[4] = second compound 0.0316 µM, first compound 1 µM
[5] = second compound 0.0316 µM, first compound 3.16 µM
[6] = second compound 0.0316 µM, first compound 10 µM
[7] = second compound 0.1 µM, first compound 0.0316 µM
[8] = second compound 0.1 µM, first compound 0.1 µM
[9] = second compound 0.1 µM, first compound 0.316 µM
[10] = second compound 0.1 µM, first compound 1 µM
[11] = second compound 0.1 µM, first compound 3.16 µM
[12] = second compound 0.1 µM, first compound 10 µM
[13] = second compound 0.316 µM, first compound 0.0316 µM
[14] = second compound 0.316 µM, first compound 0.1 µM
[15] = second compound 0.316 µM, first compound 0.316 µM
[16] = second compound 0.316 µM, first compound 1 µM
[17] = second compound 0.316 µM, first compound 3.16 µM
[18] = second compound 0.316 µM, first compound 10 µM
[19] = second compound 1 µM, first compound 0.0316 µM
[20] = second compound 1 µM, first compound 0.1 µM
[21] = second compound 1 µM, first compound 0.316 µM
[22] = second compound 1 µM, first compound 1 µM
[23] = second compound 1 µM, first compound 3.16 µM
[24] = second compound 1 µM, first compound 10 µM
[25] = second compound 3.16 µM, first compound 0.0316 µM
[26] = second compound 3.16 µM, first compound 0.1 µM
[27] = second compound 3.16 µM, first compound 0.316 µM
[28] = second compound 3.16 µM, first compound 1 µM
[29] = second compound 3.16 µM, first compound 3.16 µM
[30] = second compound 3.16 µM, first compound 10 µM
[31] = second compound 10 µM, first compound 0.0316 µM
[32] = second compound 10 µM, first compound 0.1 µM
[33] = second compound 10 µM, first compound 0.316 µM
[34] = second compound 10 µM, first compound 1 µM
[35] = second compound 10 µM, first compound 3.16 µM
[36] = second compound 10 µM, first compound 10 µM
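Note: spheroids exposed to compounds for 7 days before viability readout.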
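Throughout, for viability, T/C: luminescence signal used as surrogate for viable cell content; 100% = DMSO vehicle control viability.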

C#Cc1c(F)ccc2cc(O)cc(-c3ncc4c(N5CC6CCC(C5)N6)nc(OCC56CCCN5CC(F)C6)nc4c3F)c12 (stereo unspecified) + Nc1ccc(C#CCN(C(=O)Cc2ncc(C(F)(F)F)cc2C(F)(F)F)c2ccc(F)cc2)nn1
> 10 µM: IC50 (second compound 0.0316 µM) | IC50 (second compound 0.1 µM) | IC50 (second compound 0.316 µM) | IC50 (second compound 1 µM) | IC50 (second compound 3.16 µM) | IC50 (second compound 10 µM)
inactive: viability, T/C [1] 102% | viability, T/C [2] 103% | viability, T/C [3] 106% | viability, T/C [4] 99.4% | viability, T/C [5] 105% | viability, T/C [6] 97.1% | viability, T/C [7] 115% | viability, T/C [8] 110% | viability, T/C [9] 96.6% | viability, T/C [10] 108% | viability, T/C [11] 101% | viability, T/C [12] 91.9% | viability, T/C [13] 101% | viability, T/C [14] 106% | viability, T/C [15] 84% | viability, T/C [16] 104% | viability, T/C [17] 98.8% | viability, T/C [18] 86.7% | viability, T/C [19] 108% | viability, T/C [20] 93.8% | viability, T/C [21] 111% | viability, T/C [22] 97.9% | viability, T/C [23] 104% | viability, T/C [24] 95.4% | viability, T/C [25] 106% | viability, T/C [26] 100% | viability, T/C [27] 107% | viability, T/C [28] 106% | viability, T/C [29] 90.7% | viability, T/C [30] 101% | viability, T/C [31] 108% | viability, T/C [32] 98.7% | viability, T/C [33] 104% | viability, T/C [34] 98.2% | viability, T/C [35] 109% | viability, T/C [36] 105%

COc1cccc(OCCCN)c1-c1cc(Nc2cnc(C#N)cn2)n[nH]1 + COC1C(OC(N)=O)C(O)C(Oc2ccc3c(O)c(NC(=O)c4ccc(O)c(CC=C(C)C)c4)c(=O)oc3c2C)OC1(C)C
> 1 µM: IC50 (second compound 0.0316 µM) | IC50 (second compound 0.1 µM) | IC50 (second compound 0.316 µM) | IC50 (second compound 1 µM) | IC50 (second compound 3.16 µM) | IC50 (second compound 10 µM)
inactive: viability, T/C (second compound 0.0316 µM, first compound 0.00316 µM) 102% | viability, T/C (second compound 0.0316 µM, first compound 0.01 µM) 82.4% | viability, T/C [1] 62.8% | viability, T/C [2] 61.3% | viability, T/C [3] 61% | viability, T/C [4] 68.7% | viability, T/C (second compound 0.1 µM, first compound 0.00316 µM) 106% | viability, T/C (second compound 0.1 µM, first compound 0.01 µM) 93.8% | viability, T/C [7] 71.1% | viability, T/C [8] 71.5% | viability, T/C [9] 62.1% | viability, T/C [10] 72.3% | viability, T/C (second compound 0.316 µM, first compound 0.00316 µM) 104% | viability, T/C (second compound 0.316 µM, first compound 0.01 µM) 84.8% | viability, T/C [13] 64.7% | viability, T/C [14] 57.8% | viability, T/C [15] 71.1% | viability, T/C [16] 62.1% | viability, T/C (second compound 1 µM, first compound 0.00316 µM) 97.9% | viability, T/C (second compound 1 µM, first compound 0.01 µM) 76.3% | viability, T/C [19] 62.5% | viability, T/C [20] 62.4% | viability, T/C [21] 58.7% | viability, T/C [22] 72.9% | viability, T/C (second compound 3.16 µM, first compound 0.00316 µM) 108% | viability, T/C (second compound 3.16 µM, first compound 0.01 µM) 72% | viability, T/C [25] 71.9% | viability, T/C [26] 63.8% | viability, T/C [27] 68.4% | viability, T/C [28] 68.7% | viability, T/C (second compound 10 µM, first compound 0.00316 µM) 90.8% | viability, T/C (second compound 10 µM, first compound 0.01 µM) 80% | viability, T/C [31] 73.1% | viability, T/C [32] 62.6% | viability, T/C [33] 66.1% | viability, T/C [34] 78.3%

O=C(c1cc(Cc2n[nH]c(=O)c3ccccc23)ccc1F)N1CCN(C(=O)C2CC2)CC1 + Cc1cccc(N(C)C(=O)C2C(O)CCN2c2nc(C)cc(C(F)(F)F)c2C#N)c1
> 10 µM: IC50 (second compound 0.0316 µM) | IC50 (second compound 0.1 µM) | IC50 (second compound 0.316 µM) | IC50 (second compound 1 µM) | IC50 (second compound 3.16 µM) | IC50 (second compound 10 µM)
inactive: viability, T/C [1] 104% | viability, T/C [2] 110% | viability, T/C [3] 87.7% | viability, T/C [4] 101% | viability, T/C [5] 102% | viability, T/C [6] 94.8% | viability, T/C [7] 103% | viability, T/C [8] 104% | viability, T/C [9] 90.4% | viability, T/C [10] 102% | viability, T/C [11] 99.9% | viability, T/C [12] 90.8% | viability, T/C [13] 94.4% | viability, T/C [14] 92.1% | viability, T/C [15] 103% | viability, T/C [16] 88.4% | viability, T/C [17] 106% | viability, T/C [18] 92.2% | viability, T/C [19] 103% | viability, T/C [20] 89% | viability, T/C [21] 87.8% | viability, T/C [22] 106% | viability, T/C [23] 94.3% | viability, T/C [24] 87.7% | viability, T/C [25] 92.9% | viability, T/C [26] 93.2% | viability, T/C [27] 111% | viability, T/C [28] 103% | viability, T/C [29] 96.8% | viability, T/C [30] 98.9% | viability, T/C [31] 100% | viability, T/C [32] 93.3% | viability, T/C [33] 91% | viability, T/C [34] 102% | viability, T/C [35] 102% | viability, T/C [36] 107%
